Molecular target: T1, PELa (P. expansum Lactonase) (Penicillium expansum, UniProt A0A0A2K035)
T1 construct: gene PEX2_072460
Assay: UV absorbance at […] nm, initial rates, Michaelis-Menten fit
Format: biochemical
Settings: 100 mM Tris-HCl pH 7.5, NaCl, 100 µM ZnCl2, 25 °C; 0.6 μM enzyme, 0-0.4 mM patulin

T1 sequence (A0A0A2K035 entry or part of it): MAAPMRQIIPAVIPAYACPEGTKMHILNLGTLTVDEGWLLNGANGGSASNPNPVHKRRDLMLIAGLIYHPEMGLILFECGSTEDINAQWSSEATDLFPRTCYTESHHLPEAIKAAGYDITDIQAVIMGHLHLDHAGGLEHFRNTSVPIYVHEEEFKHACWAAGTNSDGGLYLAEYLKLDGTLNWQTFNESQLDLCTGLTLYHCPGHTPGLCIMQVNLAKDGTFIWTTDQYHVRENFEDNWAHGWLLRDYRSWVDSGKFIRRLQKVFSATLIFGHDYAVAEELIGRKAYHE

## O=C1C=C2C(=CCOC2O)O1 (stereo not shown) [patulin]
  Km: 377 ± 112 µM

— publication PMC8537011 (Journal of Fungi, 2021)
